{
  "source": "patent US20190240379A1",
  "about": "“NOVEL COMPOSITIONS ACTIVE ON ADIPOCYTES” (BIOXIS PHARMACEUTICALS, priority 2016, published 2019)",
  "system": "3T3L1 murine adipocyte line",
  "description": "For example, a 2% (w/w) chitosan preparation obtained in example 1 (DA: 2%, Mw: 450000 g·mol^−1, Bioxis Pharmaceuticals S.A.S.) is diluted in a saline solution (NaCl at 300 mOsmol·l^−1) containing 1% (w/w) of acetic acid in a well (in 24-well plates) and then distributed over half of the other wells, dried, rinsed with PBS and then with the culture medium before cell seeding (3T3L1 murine adipocyte line ATCC CL-173™). When the cells are at confluence, differentiation is induced by adding a differentiation medium. The cells are then treated with a small dose of oleic acid (OA, 2.5 μM) for 6 hours. The cells are put back in a culture medium without OA until the next day in order to avoid any background noise from the OA. Proliferation is analysed by phase contrast microscopy (×20): the images are taken at various times (2 days and 5 days post seeding), at an identical position for each well. […] The marking is observed in fluorescence microscopy and quantification carried out by imaging. The imaging and the fluorescence quantification are carried out on a real-time imaging station. The controls are fixed before the induction of differentiation (confluence, DO).",
  "data": [
    {"substance": "chitosan", "values": [
      {"measurement": "chitosan concentration with toxic effect on the 3T3L1 line", "value": "greater than or equal to 2%"},
      {"measurement": "morphology of the cells", "value": "aggressive or even toxic medium"}
    ]}
  ]
}
